Experimental data published in patent publication US20240376085A1 (Janssen Pharmaceutica NV, priority 2021, published 2024).

Legend:
IL-17A : IL-17RA binding = biological target: T1, IL-17A : IL-17RA binding (Homo sapiens, UniProt Q16552, K93Q); assay: IL-17A(FLAG-tagged):IL-17RA(His-tagged) binding disruption Eu-HTRF assay, Protocol 1; settings: FLAG-IL-17A 2.5 nM at 2x final concentration; average if tested more than once
T1 construct: Name: IL-17A-Flag
How it was run: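 IC50 came from a one-site competition fit of the acceptor/donor (665/620 nm) HTRF ratio. His-tagged IL-17RA, Eu-anti-FLAG and D2-anti-His were added after a 1 h rt compound preincubation with FLAG-tagged IL-17A dimer in PBS/0.01% Triton X-100, followed by 2 h at rt before reading.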

[1] = tested on: IL-17A-induced G-CSF production in human normal keratinocyte (NHK); assay: NHK assay: IL-17A-induced G-CSF production in normal human keratinocytes; type: cell-based; settings: Homo sapiens, Keratinocyte, 24 h, IL-17A 5 ng/mL, average if tested more than once
How it was run: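 Stimulus rhIL-17A 5 ng/mL final, premixed 1 h rt with compound; adult NHK, 5% FBS, 0.2% DMSO. Viability by CellTiter-Glo vs DMSO.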

T1 sequence (Q16552 with tags, fused parts or gaps K93Q): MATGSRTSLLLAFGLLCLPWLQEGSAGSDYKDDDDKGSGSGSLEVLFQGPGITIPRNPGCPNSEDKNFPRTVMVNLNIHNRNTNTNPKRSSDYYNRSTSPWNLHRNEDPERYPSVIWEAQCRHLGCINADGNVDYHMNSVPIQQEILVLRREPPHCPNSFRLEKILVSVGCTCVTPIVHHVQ

IC50 (IL-17A : IL-17RA binding) | Structure (SMILES) | IC50 [1]
< 50 nM | CC(C)(C[C@H](NC(=O)c1nonc1C1CC1)c1nc2ccc([C@H](NC(=O)CC3CC(F)(F)C3)C3CC3)cc2[nH]1)C(F)(F)F [Example 178, 4-Cyclopropyl-N—((S)-1-(6-((R)-cyclopropyl(2-(3,3-difluorocyclobutyl)acetamido)methyl)-1H-benzo[d]imidazol-2-yl)-4,4,4-trifluoro-3,3-dimethylbutyl)-1,2,5-oxadiazole-3-carboxamide] | < 50 nM
< 50 nM | CC(C)(C[C@H](NC(=O)c1nonc1C1CC1)c1nc2ccc([C@H](NC(=O)CCC(F)F)C3CC3)cc2[nH]1)C(F)(F)F [Example 185, 4-Cyclopropyl-N—((S)-1-(6-((R)-cyclopropyl(4,4-difluorobutanamido)methyl)-1H-benzo[d]imidazol-2-yl)-4,4,4-trifluoro-3,3-dimethylbutyl)-1,2,5-oxadiazole-3-carboxamide] | > 100 nM
< 50 nM | Cc1nonc1C(=O)N[C@@H](CC(C)(C)C(F)(F)F)c1nc2ccc([C@H](NC(=O)CC3CC(F)(F)C3)C3CC3)cc2[nH]1 [Example 186, N—((S)-1-(6-((R)-Cyclopropyl(2-(3,3-difluorocyclobutyl)acetamido)methyl)-1H-benzo[d]imidazol-2-yl)-4,4,4-trifluoro-3,3-dimethylbutyl)-4-methyl-1,2,5-oxadiazole-3-carboxamide] | 50 to 100 nM
> 100 nM | CC(C)c1nnsc1C(=O)N[C@H](c1nc2cc([C@@H](C)NC(=O)CCC(F)(F)F)ccc2[nH]1)C1CCC(F)(F)CC1 [Example 188, N—((S)-(4,4-Difluorocyclohexyl)(5-((R)-1-(4,4,4-trifluorobutanamido)ethyl)-1H-benzo[d]imidazol-2-yl)methyl)-4-isopropyl-1,2,3-thiadiazole-5-carboxamide] | > 100 nM
> 100 nM | CC(C)n1ncnc1C(=O)N[C@H](c1nc2cc([C@@H](C)NC(=O)CCC(F)(F)F)ccc2[nH]1)C1CCC(F)(F)CC1 [Example 199, N—((S)-(4,4-Difluorocyclohexyl)(5-((R)-1-(4,4,4-trifluorobutanamido)ethyl)-1H-benzo[d]imidazol-2-yl)methyl)-1-isopropyl-1H-1,2,4-triazole-5-carboxamide] | > 100 nM
50 to 100 nM | CC(C)c1scnc1C(=O)N[C@H](c1nc2cc([C@@H](C)NC(=O)CCC(F)(F)F)ccc2[nH]1)C1CCC(F)(F)CC1 [Example 200, N—((S)-(4,4-Difluorocyclohexyl)(5-((R)-1-(4,4,4-trifluorobutanamido)ethyl)-1H-benzo[d]imidazol-2-yl)methyl)-5-isopropylthiazole-4-carboxamide] | 50 to 100 nM
> 100 nM | C[C@@H](NC(=O)CCC(F)(F)F)c1ccc2[nH]c([C@@H](NC(=O)c3nc(CCC(F)(F)F)cs3)C3CCC(F)(F)CC3)nc2c1 [Example 201, N—((S)-(4,4-Difluorocyclohexyl)(5-((R)-1-(4,4,4-trifluorobutanamido)ethyl)-1H-benzo[d]imidazol-2-yl)methyl)-4-(3,3,3-trifluoropropyl) thiazole-2-carboxamide] | > 100 nM
< 50 nM | CC(C)c1oncc1C(=O)N[C@H](c1nc2cc([C@@H](C)NC(=O)CCC(F)(F)F)ccc2[nH]1)C1CCC(F)(F)CC1 [Example 202, N—((S)-(4,4-Difluorocyclohexyl)(5-((R)-1-(4,4,4-trifluorobutanamido)ethyl)-1H-benzo[d]imidazol-2-yl)methyl)-5-isopropylisoxazole-4-carboxamide] | < 50 nM
> 100 nM | CC(C)c1ncsc1C(=O)N[C@H](c1nc2cc([C@@H](C)NC(=O)CCC(F)(F)F)ccc2[nH]1)C1CCC(F)(F)CC1 [Example 203, N—((S)-(4,4-Difluorocyclohexyl)(5-((R)-1-(4,4,4-trifluorobutanamido)ethyl)-1H-benzo[d]imidazol-2-yl)methyl)-4-isopropylthiazole-5-carboxamide] | > 100 nM
< 50 nM | CC(C)c1nocc1C(=O)N[C@H](c1nc2cc([C@@H](C)NC(=O)CCC(F)(F)F)ccc2[nH]1)C1CCC(F)(F)CC1 [Example 204, N—((S)-(4,4-Difluorocyclohexyl)(5-((R)-1-(4,4,4-trifluorobutanamido)ethyl)-1H-benzo[d]imidazol-2-yl)methyl)-3-isopropylisoxazole-4-carboxamide] | < 50 nM
< 50 nM | CC(C)c1ccsc1C(=O)N[C@H](c1nc2cc([C@@H](C)NC(=O)CCC(F)(F)F)ccc2[nH]1)C1CCC(F)(F)CC1 [Example 205, N—((S)-(4,4-Difluorocyclohexyl)(5-((R)-1-(4,4,4-trifluorobutanamido)ethyl)-1H-benzo[d]imidazol-2-yl)methyl)-3-isopropylthiophene-2-carboxamide] | 50 to 100 nM
50 to 100 nM | CC(C)c1snnc1C(=O)N[C@H](c1nc2cc([C@@H](C)NC(=O)CCC(F)(F)F)ccc2[nH]1)C1CCC(F)(F)CC1 [Example 206, N—((S)-(4,4-Difluorocyclohexyl)(5-((R)-1-(4,4,4-trifluorobutanamido)ethyl)-1H-benzo[d]imidazol-2-yl)methyl)-5-isopropyl-1,2,3-thiadiazole-4-carboxamide] | < 50 nM
50 to 100 nM | CC(C)c1ocnc1C(=O)N[C@H](c1nc2cc([C@@H](C)NC(=O)CCC(F)(F)F)ccc2[nH]1)C1CCC(F)(F)CC1 [Example 207, N—((S)-(4,4-Difluorocyclohexyl)(5-((R)-1-(4,4,4-trifluorobutanamido)ethyl)-1H-benzo[d]imidazol-2-yl)methyl)-5-isopropyloxazole-4-carboxamide] | > 100 nM
> 100 nM | CC(C)n1cncc1C(=O)N[C@H](c1nc2cc([C@@H](C)NC(=O)CCC(F)(F)F)ccc2[nH]1)C1CCC(F)(F)CC1 [Example 208, N—((S)-(4,4-Difluorocyclohexyl)(5-((R)-1-(4,4,4-trifluorobutanamido)ethyl)-1H-benzo[d]imidazol-2-yl)methyl)-1-isopropyl-1H-imidazole-5-carboxamide] | > 100 nM
50 to 100 nM | C[C@@H](NC(=O)CCC(F)(F)F)c1ccc2[nH]c([C@@H](NC(=O)c3conc3C3CC3)C3CCC(F)(F)CC3)nc2c1 [Example 209, 3-Cyclopropyl-N—((S)-(4,4-difluorocyclohexyl)(5-((R)-1-(4,4,4-trifluorobutanamido)ethyl)-1H-benzo[d]imidazol-2-yl)methyl)isoxazole-4-carboxamide] | < 50 nM
> 100 nM | C[C@@H](NC(=O)CCC(F)(F)F)c1ccc2[nH]c([C@@H](NC(=O)c3ccn4c3CCC4)C3CCC(F)(F)CC3)nc2c1 [Example 210, N—((S)-(4,4-Difluorocyclohexyl)(5-((R)-1-(4,4,4-trifluorobutanamido)ethyl)-1H-benzo[d]imidazol-2-yl)methyl)-2,3-dihydro-1H-pyrrolizine-7-carboxamide] | > 100 nM
> 100 nM | C[C@@H](NC(=O)CCC(F)(F)F)c1ccc2[nH]c([C@@H](NC(=O)c3cnc4n3CCC4)C3CCC(F)(F)CC3)nc2c1 [Example 211, N—((S)-(4,4-Difluorocyclohexyl)(5-((R)-1-(4,4,4-trifluorobutanamido)ethyl)-1H-benzo[d]imidazol-2-yl)methyl)-6,7-dihydro-5H-pyrrolo[1,2-a]imidazole-3-carboxamide] | > 100 nM
> 100 nM | C[C@@H](NC(=O)CCC(F)(F)F)c1ccc2[nH]c([C@@H](NC(=O)c3cnn4c3CCC4)C3CCC(F)(F)CC3)nc2c1 [Example 212, N—((S)-(4,4-Difluorocyclohexyl)(5-((R)-1-(4,4,4-trifluorobutanamido)ethyl)-1H-benzo[d]imidazol-2-yl)methyl)-5,6-dihydro-4H-pyrrolo[1,2-b]pyrazole-3-carboxamide] | > 100 nM
< 50 nM | CC(C)n1cccc1C(=O)N[C@H](c1nc2cc([C@@H](C)NC(=O)CCC(F)(F)F)ccc2[nH]1)C1CCC(F)(F)CC1 [Example 213, N—((S)-(4,4-Difluorocyclohexyl)(5-((R)-1-(4,4,4-trifluorobutanamido)ethyl)-1H-benzo[d]imidazol-2-yl)methyl)-1-isopropyl-1H-pyrrole-2-carboxamide] | < 50 nM
50 to 100 nM | C[C@@H](NC(=O)CCC(F)(F)F)c1ccc2[nH]c([C@@H](NC(=O)c3conc3CCC(F)(F)F)C3CCC(F)(F)CC3)nc2c1 [Example 214, N—((S)-(4,4-Difluorocyclohexyl)(5-((R)-1-(4,4,4-trifluorobutanamido)ethyl)-1H-benzo[d]imidazol-2-yl)methyl)-3-(3,3,3-trifluoropropyl)isoxazole-4-carboxamide] | < 50 nM
> 100 nM | C[C@@H](NC(=O)CCC(F)(F)F)c1ccc2[nH]c([C@@H](NC(=O)c3cc(CCC(F)(F)F)no3)C3CCC(F)(F)CC3)nc2c1 [Example 215, N—((S)-(4,4-Difluorocyclohexyl)(5-((R)-1-(4,4,4-trifluorobutanamido)ethyl)-1H-benzo[d]imidazol-2-yl)methyl)-3-(3,3,3-trifluoropropyl)isoxazole-5-carboxamide] | > 100 nM
> 100 nM | C[C@@H](NC(=O)CCC(F)(F)F)c1ccc2[nH]c([C@@H](NC(=O)c3cncn3CCC(F)(F)F)C3CCC(F)(F)CC3)nc2c1 [Example 216, N—((S)-(4,4-Difluorocyclohexyl)(5-((R)-1-(4,4,4-trifluorobutanamido)ethyl)-1H-benzo[d]imidazol-2-yl)methyl)-1-(3,3,3-trifluoropropyl)-1H-imidazole-5-carboxamide] | > 100 nM
